In patent EP0392326B1, “Dichloro-substituted imidazole derivatives as antifungal agents” (SOCIEDAD ESPANOLA DE ESPECIALIDADES FARMACO-TERAPEUTICAS, …, priority 1989, dated 1990):

Experiments:
[1] = tested on: Candida tropicalis CECT 1440; test: In vitro activity against Candida tropicalis CECT 1440 (MIC and RIF); type: cell-based; details: for RIF: Relative Inhibition Factor, Candida tropicalis CECT 1440; for activity compared with Clotrimazole: applicant's own tests, illustrated by the table of Example 3
From the text: In vitro activity against Candida tropicalis CECT 1440.
This pharmacological test allows a comparison of the activities of the two products of the present invention (WAS 2160 and WAS 2169) with the activities of the structurally closest described product (SQ 80896), the structurally closest commercial product (Clotrimazole) and the analogue product without the seven-membered ring (WAS 2162). MIC (Minimum Inhibitory Concentration, in […]) and RIF (Relative Inhibition Factor) parameters were determined in a standard way, obtaining the results of the table (WAS 2162 is the nitric acid salt of 1-[(2,4-dichlorophenyl)phenylmethyl]-1H-imidazole, prepared at our laboratory).

C. albicans = test: In vitro MIC, progressive double dilutions in liquid medium; type: cell-based; parameters: unit not given here; details: Sabouraud broth with gentamycin
Method: (§1) In vitro ativity against 116 strains of yeasts and 45 strains of dermatophytes
(§2) MIC-s were determined by the method of progressive double dilutions in a liquid medium, using sterile microplates. The culture medium used was the Sabouraud broth with gentamycin (100 mg/1000 mL).

C. parapsilosis = test: as above; type: cell-based; parameters: unit not given here; details: Sabouraud broth with gentamycin
Method: as §1, §2

C. tropicalis = test: as above; type: cell-based; parameters: unit not given here; details: Sabouraud broth with gentamycin
Method: as §1, §2

M. gypseum = test: as above; type: cell-based; parameters: unit not given here; details: Sabouraud broth with gentamycin
Method: as §1, §2

C. Krusei = test: as above; type: cell-based; details: Sabouraud broth with gentamycin
Method: as §1, §2

Epidermophyton floccosum = test: as above; type: cell-based; details: Sabouraud broth with gentamycin
Method: as §1, §2

Microsporum canis = test: as above; type: cell-based; details: Sabouraud broth with gentamycin
Method: as §1, §2

T. tonsurans = test: as above; type: cell-based; details: Sabouraud broth with gentamycin
Method: as §1, §2

Torulopsis glabrata = test: as above; type: cell-based; details: Sabouraud broth with gentamycin
Method: as §1, §2

Trich. rubrum = test: as above; type: cell-based; details: Sabouraud broth with gentamycin
Method: as §1, §2

Trichoph. mentagrophytes = test: as above; type: cell-based; details: Sabouraud broth with gentamycin
Method: as §1, §2

[2] = tested on: Trichophyton mentagrophytes; test: In vivo protection against experimentally-induced dermatophytosis; details: guinea pig, double-blind
Method: In vivo tests of protection against experimentally-induced dermatophytosis in the guinea pig, caused by Trichophyton mentagrophytes.
Two double-blind comparative tests were carried out, with the following results: […]

candidiosis = test: In vivo antifungal activity against candidiosis; details: guinea pig candidiosis, double-blind
Method: In vivo test of antifungal activity against candidiosis in guinea pig
A double-blind comparative test was carried out with WAS 2160 and Clotrimazole, with the following results: […]

[3] = tested on: Malassezia furfur (Pytiosporum); test: In vitro test against 30 strains of Malassezia furfur; type: cell-based; details: for % of strains with PIC lower than 40 »g/mL: PIC = Partial Inhibitory Concentration: growth inhibition greater than 50% in relation to controls
Method: In vitro test against 30 strains of Malassezia furfur (Pytiosporum)
A double-blind comparative test was carried out with WAS 2160, Clotrimazole and Bifonazole, with the results of the table. (PIC = Partial Inhibitory Concentration: growth inhibition greater than 50% in relation to controls).

[4] = Tolerance test in rabbits (eye, skin, vagina); type: in vivo; details: skin and vagina
From the text: Tolerance test of WAS 2160 in rabbits

Candida albicans = details: data of US 4.420.474 Table I; cited from earlier work

| SMILES | RIF [1] | MIC (C. albicans) | MIC (C. parapsilosis) | MIC (C. tropicalis) | MIC (M. gypseum) | MIC (C. Krusei) | MIC (Epidermophyton floccosum) | MIC (Microsporum canis) | MIC (T. tonsurans) | MIC (Torulopsis glabrata) | MIC (Trich. rubrum) | MIC (Trichoph. mentagrophytes) | % of negative cultures after treatment ([2]; test I) | % of animals with total clin. healing (candidiosis) | % of negative cultures after treatment (candidiosis) | % of strains with MIC lower than 40 »g/mL [3] | % of strains with PIC lower than 40 »g/mL [3] | % of negative cultures after treatment ([2]; test II) | activity compared with Clotrimazole [1] | further results |
| --- | --- | --- | --- | --- | --- | --- | --- | --- | --- | --- | --- | --- | --- | --- | --- | --- | --- | --- | --- | --- |
| Clc1cc(Cl)c2c(c1)CCc1ccccc1C2n1ccnc1.O=[N+]([O-])O (racemic) [WAS 2160, 1-(2,4-Dichloro-10,11-dihydro-5H-dibenzo[a,d]cyclohepten-5-yl)-1H-imidazole nitrate] | 39.31 | 2,25 | 2,06 | 3,44 | 1,05 | 3,17 | 0,32 | 0,39 | 0,19 | 1,25 | 0,54 | 0,17 | 50% | 60% | 100% | 40% | 60% |  |  | Tolerance [4]: innocuous and totally tolerated by the eye, the skin and the vagina |
| Clc1cc(Cl)c2c(c1)C=Cc1ccccc1C2n1ccnc1.O=[N+]([O-])O (racemic) [WAS 2169, 1-(2,4-dichloro-5H-dibenzo[a,d]cyclohepten-5-yl)-1H-imidazole nitrate] | 54.94 | 1,98 | 1,08 | 7,58 | 0,08 | 5,61 |  | 0,06 |  | 6,33 | 0,30 | 0,17 |  |  |  |  |  | 81,8% |  |  |
| c1ccc(-c2ccc(C(c3ccccc3)n3ccnc3)cc2)cc1 (centres unmarked) [Bifonazole] |  | 12,10 | 58,97 | 72,67 | 6,25 | 50,50 | 0,02 | 3,12 | 1,20 | 14,88 | 1,19 | 1,48 | 39 % (test I) |  |  | 83% | 50% | 0 % (test II) |  |  |
| Clc1ccccc1C(c1ccccc1)(c1ccccc1)n1ccnc1 [Clotrimazole] | 43.05 | 2,43 | 2,36 | 3,51 | 0,97 | 6,18 | 0,09 | 2,69 | 0,90 | 6,29 | 0,31 | 0,23 |  | 30% | 100% | 33% | 56% |  |  |  |
| Clc1ccc2c(c1)C(n1ccnc1)c1ccccc1CC2 (centres unmarked) [SQ 80896, 1-(3-chloro-10,11-dihydro-5H-dibenzo[a,d]dicyclohepten-5-yl)-1H-imidazole] | 83.96 |  |  |  |  |  |  |  |  |  |  |  |  |  |  |  |  |  | considerably less active than Clotrimazole | activity compared with Clotrimazole (MIC parameters) (Candida albicans): considerably less active than Clotrimazole |
| Clc1ccc(C(c2ccccc2)n2ccnc2)c(Cl)c1 (centres unmarked) [WAS 2162, 1-[(2,4-dichlorophenyl)phenylmethyl]-1H-imidazole] | 94.47 |  |  |  |  |  |  |  |  |  |  |  |  |  |  |  |  |  | considerably less active than Clotrimazole |  |
